Patent US20230129034A1, “TREATMENT OF DISEASE WITH ESTERS OF SELECTIVE RXR AGONISTS” (Io Therapeutics, Inc., priority 2017, published 2023)
“Also recorded” adds a separate entry of the source.

Tests used:
RXRα = target: T1, RXRα (Homo sapiens, UniProt P19793); test: RXR homodimer transactivation assay (rCRBPII/RXRE-tk-Luc reporter, CV-1 cells); format: cell-based
T1 construct: an expression construct including a full length RXRα, RXRβ, or RXRy; expressed in transfected cells; host or cells: CV-1
T1 sequence (P19793 1-462): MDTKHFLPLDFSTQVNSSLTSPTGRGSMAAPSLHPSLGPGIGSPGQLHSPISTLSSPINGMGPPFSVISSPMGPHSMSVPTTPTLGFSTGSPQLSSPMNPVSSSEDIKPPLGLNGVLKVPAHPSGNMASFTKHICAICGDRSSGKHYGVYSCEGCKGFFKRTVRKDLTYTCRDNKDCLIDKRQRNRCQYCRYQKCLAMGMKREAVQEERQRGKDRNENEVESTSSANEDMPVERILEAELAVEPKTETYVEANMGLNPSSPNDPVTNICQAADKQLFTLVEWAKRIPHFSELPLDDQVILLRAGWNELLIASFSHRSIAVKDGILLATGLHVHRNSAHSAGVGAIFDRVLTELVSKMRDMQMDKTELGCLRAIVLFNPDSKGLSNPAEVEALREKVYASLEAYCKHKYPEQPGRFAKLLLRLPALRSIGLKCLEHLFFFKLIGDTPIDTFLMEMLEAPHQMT
From the text: (§1) Data are mean values ± SE from five independent experiments.

RXRγ = target: T2, RXRγ (Homo sapiens, UniProt P48443); test: as above; format: cell-based
T2 construct: an expression construct including a full length RXRα, RXRβ, or RXRy; expressed in transfected cells; host or cells: CV-1
T2 sequence (P48443 1-463): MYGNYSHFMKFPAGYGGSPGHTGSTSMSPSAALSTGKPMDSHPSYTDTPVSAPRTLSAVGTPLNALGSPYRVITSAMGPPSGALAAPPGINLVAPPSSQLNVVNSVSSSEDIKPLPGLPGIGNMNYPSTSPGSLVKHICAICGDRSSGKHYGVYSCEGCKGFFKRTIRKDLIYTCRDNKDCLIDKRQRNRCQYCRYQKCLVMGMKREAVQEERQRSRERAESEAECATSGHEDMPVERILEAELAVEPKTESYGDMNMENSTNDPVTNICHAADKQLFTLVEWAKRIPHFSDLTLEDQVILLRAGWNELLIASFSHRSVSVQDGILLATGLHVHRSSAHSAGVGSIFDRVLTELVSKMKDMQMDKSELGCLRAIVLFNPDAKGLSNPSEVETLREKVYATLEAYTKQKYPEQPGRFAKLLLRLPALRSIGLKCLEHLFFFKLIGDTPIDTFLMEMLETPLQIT
From the text: as §1

LXRα/RXR = test: Permissive heterodimer transactivation assay, CV-1 cells, 3x(PLTP/LXRE)-tk-Luc; format: cell-based; conditions: 20 hr, luciferase vs T0901317
From the text: (§2) For PPARy: CV-1 cells were transfected with 3x(rAOX/DR1)-tk-Luc reporter gene and an expression vector for PPARy. For FXR:CV-1 cells were transfected with 3x(IBABP/IRI)-tk-Luc reporter gene and vectors for FXR and RXRα. For LXR:CV-1 cells were transfected with 3x(PLTP/LXRE)-tk-Luc reporter gene with vectors for LXRα or LXRβ. For Nurr1: COS7 cells were transfected with 3xNBRE-tk-luc reporter gene and full length Nurr-1 with or without full-length RXRα plasmid. […] Luciferase data were normalized to co-transfected β-gal activity. Luciferase activity was expressed as percent of maximal activity obtained using specific agonists. Rosiglitazone (PPARy), GW4064 (FXR), T0901317 (LXR).

LXRβ/RXR = test: as above; format: cell-based; conditions: 20 hr, luciferase vs T0901317
From the text: as §2

[1] = tested on: experimental autoimmune encephalomyelitis (EAE) in C57BL/6 (B6) mice; test: EAE in C57BL/6 (B6) mice, MOG peptide induced; format: in vivo; conditions: 50 µg i.p. every other day from day 7
Protocol: Mice were also given 200 ng of pertussis toxin in PBS administered by inter-peritoneal (i.p.) injection on the same day as MOG emulsion injection (day 0) and 2 days later (day 2). […] Mice were scored using the following scale: 0 - Mice have no disease, 1 -Mice have distal limp tail or rear leg weakness (paresis), 1.5 - Mice have distal limp tail and rear leg weakness, 2 - Mice have complete limp tail and rear leg weakness, 2.5 - Mice have complete limp tail and weakness in both rear legs, 3 - Mice have complete limp tail and paralysis in both rear legs, 3.5 - Mice have complete limp tail, paralysis in both rear legs, and forelimb weakness. Mice receiving a score of 3.5 were immediately euthanized.

[2] = tested on: oligodendrocyte precursor cells (OPCs); test: Oligodendrocyte precursor cell differentiation (PLP-EGFP OPCs); format: cell-based, mouse; conditions: for OPC differentiation into oligodendrocytes (EGFP positive cells): compared to negative control (DMSO)
From the text: OPCs were generated from a neurosphere culture of E14.5 PLP-EGFP (on C57BL/6J background) mouse brains. […] The EGFP expressing cells were quantified with Cellomics Neuronal Profiling Algorithm.
The EGFP expressing cells in controls and all compounds were quantified with Cellomics Neuronal Profiling Algorithm.

[3] = Plasma and brain concentrations after intravenous injection in ICR mice (LC-MS/MS); format: in vivo; conditions: 1 mg/kg IV
Protocol: The compounds were dissolved in 4% DMSO, 1% Tween80 and 95% PBS(v/v) at a concentration of 0.2 mg/ml. Each mouse was injected with a volume to deliver 1 mg/kg of the compound (corresponding to 3 mg/m^2).
At designated time points (0.5, 1.5, and 3 hr), with the mice under terminal isofluorane anesthesia, systemic blood sample (ca 0.4-0.5 mL) were collected by cardiac puncture into micro-tube containing sodium EDTA-K2 as anti-coagulant (n=3 at each time point). Blood samples from the IRX4204EE arm of the study had appropriate esterase inhibitors added. The blood was centrifuged at 13000 rpm for 3 min at 4° C. to obtain plasma and protein was precipitated with acetonitrile prior to being assayed for compound content. The brain was removed and transferred to a pre-weighed vessel for weight determination. Brain tissue was homogenized in five volumes of PBS, centrifuged, and the supernatant assayed for compound content. […] The same standard curve was used to quantitate analyte concentrations in both brain and plasma.

Treg cells = test: Treg cell differentiation in in vitro cell culture; format: cell-based
Th17 cells = test: Th17 cell differentiation / IL-17 production in vitro; format: cell-based
[4] = CV-1 cells, 20 hours, luciferase activity

Q: With `CC(/C=C/[C@@H]1C[C@]1(C)c1ccc2c(c1)C(C)(C)CCC2(C)C)=C\C(=O)O` [IRX4204, 3,7-dimethyl-6(S),7(S)-methano,7-[1,1,4,4-tetramethyl-1,2,3,4-tetrahydronaphth-7-yl]2(E),4(E) heptadienoic acid] as the compound, how does the EC90 (RXRα; CV-1) read?
A: Its EC90 is about 0.1 nM.

Q: And the “Efficacy (% of 1 µM IRX4204) RXRα” value (RXRα; [4])?
A: The value was 100 % of 1 µM IRX4204.

Q: And the “Efficacy (% of 1 µM IRX4204) RXRγ” value (RXRγ)?
A: Its value is 0.09 ±0.01 100 % of 1 µM IRX4204.

Q: And the EC90 (RXRγ; CV-1, read-out: EC90 with RXRγ)?
A: The EC90 was about 0.1 nM.

Q: What about the “activation of LXRα/RXR heterodimer” value (LXRα/RXR) of the same compound?
A: The value was “not to transactivate; also recorded: does not activate”.

Q: What about the “activation of LXRβ/RXR heterodimer” value (LXRβ/RXR) of the same compound?
A: Its value is “not to transactivate; also recorded: does not activate”.

Q: What about the “symptoms of EAE (disease severity score)” value [1] of the same compound?
A: Its value is “significantly reduces the symptoms of EAE”.

Q: What about the “OPC differentiation into oligodendrocytes by concentration” value ([2]; all tested concentrations but the lowest concentration (1^-6 µM)) of the same compound?
A: The value was “significant increase in OPC differentiation”.

Q: What about the “total cell number and pyknotic cells” value ([2]; compared to controls) of the same compound?
A: Its value is “did not show any differences”.

Q: And the “OPC differentiation into oligodendrocytes (EGFP positive cells)” value [2]?
A: Its value is “promotes OPC differentiation”.

Q: And the concentration at 3 h ([3]; male, ICR, mouse, brain, 3 hours post-administration)?
A: The concentration at 3 h was 7.9 to 8.2 nM.

Q: What about the “formation of Treg cells” value (Treg cells; 1 nM) of the same compound?
A: Its value is “substantially enhances the formation of Treg cells”.

Q: What about the “production of IL-17” value (Th17 cells; 1 nM) of the same compound?
A: The value was “profoundly inhibits production of IL-17”.

Q: Which EC50 (RXRα; [4]) does the source give for `CCOC(=O)/C=C(C)/C=C/[C@@H]1C[C@]1(C)c1ccc2c(c1)C(C)(C)CCC2(C)C` [IRX4204EE, 3,7-dimethyl-6(S),7(S)-methano,7-[1,1,4,4-tetramethyl-1,2,3,4-tetrahydronaphth-7-yl]2(E),4(E) heptadienoic ethyl ester] here?
A: The EC50 was over 1000 nM.

Q: And the EC50 (RXRγ; [4])?
A: Its EC50 is over 1000 nM.

Q: And the “activation of LXRα/RXR heterodimer” value (LXRα/RXR)?
A: Its value is “very little activity”.

Q: What about the “activation of LXRβ/RXR heterodimer” value (LXRβ/RXR) of the same compound?
A: The value was “very little activity”.

Q: And the “symptoms of EAE (disease severity score)” value [1]?
A: The value was “more effective than IRX4204”.

Q: What about the “OPC differentiation into oligodendrocytes (EGFP positive cells)” value [2] of the same compound?
A: The value was “essentially no activity; also recorded: considerably less active”.

Q: And the “concentration of the ester in the brain over the course of the experiment” value ([3]; 0.5 to 3 hr)?
A: The value was “rose slightly”.

Q: And the “concentration of the ester in blood compared with brain” value ([3]; 3 hour time point)?
A: The value was “approximately the same”.

Q: And the “blood concentration of the ester itself relative to IRX4204” value ([3]; 3 hours)?
A: Its value is “about 5 fold”.

Q: And the “concentration of IRX4204 in the blood from the ester form compared with the free acid form” value ([3]; 3 hours)?
A: The value was “about the same”.

Q: What about the “blood concentration of IRX4204 due to conversion of IRX4204EE relative to that due to IV injection of IRX4204” value ([3]; half-hour time point) of the same compound?
A: Its value is “about one sixth”.

Q: And the “promoting the differentiation of Treg cells, relative to parent form” value (Treg cells; in vitro cell culture)?
A: The value was “less active than its parent form”.

Q: What about the “inhibiting the differentiation of Th17 cells, relative to parent form” value (Th17 cells; in vitro cell culture) of the same compound?
A: The value was “less active than its parent form”.
